Source: article PMC11189516, “Structure-guided conversion from an anaplastic lymphoma kinase inhibitor into Plasmodium lysyl-tRNA synthetase selective inhibitors” (Communications Biology, 2024)
Values joined by “and” are separate entries in the source; they are usually repeats but may differ in a detail not shown here. Equal values may be shown once.

Key:
[1] = target: T1, PfLysRS (Plasmodium falciparum, UniProt Q8IDJ8); test: Thermal shift assay; format: binding; conditions: for ΔTm of PfLysRS / ΔTm at 200 µM: in the presence of L-lysine; for Tm of PfLysRS, Average / Tm of PfLysRS, single repeat: in °C (unit assumed)
T1 construct: PfLysRS (77–583) was constructed in the vector pET20b, with a C-terminal 6×His tag; 6xHis (C); made in house; host or cells: E. coli BL21 (DE3)
T1 sequence (Q8IDJ8 entry or part of it): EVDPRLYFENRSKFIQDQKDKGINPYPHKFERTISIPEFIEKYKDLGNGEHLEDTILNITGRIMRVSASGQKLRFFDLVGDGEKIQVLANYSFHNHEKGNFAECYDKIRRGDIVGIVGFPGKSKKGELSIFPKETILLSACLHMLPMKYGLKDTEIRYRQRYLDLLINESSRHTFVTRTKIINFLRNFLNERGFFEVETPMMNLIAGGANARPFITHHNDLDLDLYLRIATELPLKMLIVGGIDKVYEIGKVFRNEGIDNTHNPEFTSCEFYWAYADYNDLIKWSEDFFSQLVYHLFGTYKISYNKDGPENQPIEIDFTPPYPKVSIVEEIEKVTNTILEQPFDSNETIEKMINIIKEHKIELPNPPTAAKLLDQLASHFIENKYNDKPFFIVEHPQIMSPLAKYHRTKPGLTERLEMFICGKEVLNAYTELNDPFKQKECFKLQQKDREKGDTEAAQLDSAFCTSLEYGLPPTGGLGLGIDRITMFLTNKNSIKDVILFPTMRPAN
Experimental: PfLysRS protein was prepared at 10 μM concentration in a buffer containing 20 mM Tris pH 8.0, 200 mM NaCl, 500 μM L-lysine, and 200 μM Compound. Aliquots (18 µL) were added to a 96-well PCR plate and incubated at ambient temperature for 10 min. SYPRO Orange dye (Sigma) was diluted in the assay buffer containing 20 mM Tris pH 8.0 and 200 mM NaCl to a 40× concentration, and 2 µL of the 40× dye solution was added to the PCR plate to bring the final assay volume to 20 µL. After complete mixing, the final solutions were heated from 25 to 90 °C at a rate of 0.015 °C per sec, and fluorescence signals were monitored by QuantStudio 3 (Applied Biosystems by Thermo Fisher Scientific).

[2] = test system: erythrocytic-stage P. falciparum 3D7 parasites; test: In vitro Plasmodium growth assay; format: cell-based, Plasmodium falciparum; conditions: for HillSlope (best-fit value): Plasmodium falciparum 3D7; for LogIC50 (best-fit value): Plasmodium falciparum 3D7, log of nM; for IC50: Plasmodium falciparum 3D7, source data, read-out: IC50 (best-fit value); for EC50: Plasmodium falciparum, 3D7, 72 h
Experimental: Parasites were cultured in human O+ erythrocytes according to standard procedures. To prepare the >80% ring stage parasites, asynchronous cultures of parasites were pretreated with 5% sorbitol, and P. falciparum strain 3D7 at the mid-ring stage (6–10 h post-invasion) was used to test antimalarial effects in 96-well plates. Parasites were incubated in a 96-well plate with compound containing 1% parasitemia and, 2% hematocrit for a total volume of 200 μL. […] A relevant DMSO concentration was used as a negative control, and cultured erythrocytes without Plasmodium served as a positive control. The parasites were allowed to grow for 72 h at 37 °C with 5% CO2, 5% O2, and 90% N2. After 72 h, 100 μL of lysis buffer (0.12 mg·mL^−1 Saponin, 0.12% Triton X-100, 30 mM Tris-HCl pH 8.0, and 7.5 mM EDTA) with 5× SYBR Green I (Invitrogen; supplied in 10000× concentration) was added to each well of the plate. The plates were then incubated for 2 h in the dark prior to reading the fluorescence signal at 485 nm excitation and 535 nm emission. The percentage of inhibition was calculated by (NC-fluorescence) × 100/(NC-PC).

[3] = target: T1, PfLysRS; test: ATP hydrolysis assay (Kinase-Glo) on PfLysRS; format: biochemical; conditions: read-out: IC50 against PfLysRS
Experimental: (§1) The ATP hydrolysis assays were based on Kinase-Glo luminescent Kit (Promega). The experiment was carried out in Corning 384-well white flat bottom microplates. The buffer in the reaction contains 25 mM Hepes pH 7.4, 140 mM NaCl, 40 mM MgCl2, 30 mM KCl, 1 mM TCEP, 0.1 mg·mL^−1 BSA, and 0.004% Tween-20. The compounds were diluted to different concentrations with a 5-fold gradient.
(§2) For LysRS assays, DMSO was added into negative control wells and L-lysine was removed in positive control wells. 100 nM LysRS in 2.5 μL Hepes buffer was mixed with compounds and incubated for 10 min. Then 5 μL substrate mixture (2 μM ATP, 10 μM L-lysine and 31 nM pyrophosphatase) was added to start the reaction at 37 °C and incubated for 6 h.
(§3) When the reaction reaches the planned time, 10 μL diluted Kinase-Glo reagent (1/50 diluted with a buffer containing 50 mM Tris pH 7.5 and 5% glycerol) was added and incubated for 15 min. Luminescence was measured on the Magellan plate reader (Tecan) and nonlinear regression was performed with Prism (GraphPad).

[4] = target: T2, HsLysRS (Homo sapiens, UniProt Q15046); test: ATP hydrolysis assay (Kinase-Glo) on HsLysRS; format: biochemical; conditions: read-out: IC50 against HsLysRS
T2 construct: HsLysRS (70–581) was constructed in the vector pET20b with a C-terminal 6×His tag; 6xHis (C); made in house; host or cells: E. coli (pET20b; 'purified similarly' to PfLysRS, which was expressed in BL21 (DE3))
T2 sequence (Q15046 70-581): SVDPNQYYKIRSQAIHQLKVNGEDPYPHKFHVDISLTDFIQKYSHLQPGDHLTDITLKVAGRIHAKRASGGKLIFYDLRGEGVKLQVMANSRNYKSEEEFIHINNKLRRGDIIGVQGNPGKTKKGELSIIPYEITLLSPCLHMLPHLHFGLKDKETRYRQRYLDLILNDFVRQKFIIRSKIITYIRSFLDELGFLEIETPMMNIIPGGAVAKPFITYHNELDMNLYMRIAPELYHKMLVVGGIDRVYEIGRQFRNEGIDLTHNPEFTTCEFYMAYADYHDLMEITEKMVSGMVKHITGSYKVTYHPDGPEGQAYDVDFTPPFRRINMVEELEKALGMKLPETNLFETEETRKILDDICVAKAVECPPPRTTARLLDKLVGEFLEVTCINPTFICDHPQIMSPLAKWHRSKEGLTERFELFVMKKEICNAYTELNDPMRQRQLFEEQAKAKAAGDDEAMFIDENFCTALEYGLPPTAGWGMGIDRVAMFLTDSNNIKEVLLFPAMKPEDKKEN
Experimental: as §1, §2, §3

[5] = target: T3, ALK (Homo sapiens, UniProt Q9UM73); test: ATP hydrolysis assay (Kinase-Glo) on ALK; format: biochemical; conditions: read-out: IC50 against ALK
T3 construct: The plasmid pCDNA3.1_8×His-tev-ALK (kinase domain, 1068–1410) was constructed; 8xHis (N); TEV site (N); made in house; host or cells: Expi293 cells (transient transfection)
T3 sequence (Q9UM73 1068-1410): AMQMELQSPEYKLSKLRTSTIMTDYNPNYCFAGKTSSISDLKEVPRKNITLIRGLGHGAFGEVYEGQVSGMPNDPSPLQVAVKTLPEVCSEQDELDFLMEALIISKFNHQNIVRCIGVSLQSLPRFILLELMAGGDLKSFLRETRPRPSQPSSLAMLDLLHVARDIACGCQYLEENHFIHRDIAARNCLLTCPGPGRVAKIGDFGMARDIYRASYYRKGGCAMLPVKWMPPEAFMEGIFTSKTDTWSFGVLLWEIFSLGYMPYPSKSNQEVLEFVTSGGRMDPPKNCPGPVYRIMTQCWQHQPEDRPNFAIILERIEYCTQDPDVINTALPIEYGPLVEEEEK
Experimental: as §1
For ALK assays, DMSO was added into negative control wells. 100 nM ALK in 2.5 μL Hepes buffer was mixed with compounds and incubated for 10 min. Then 5 μL substrate (2 μM ATP) was added to start the reaction at 37 °C and incubated for 6 h.
as §3

[6] = P. falciparum 3D7, Log(Concentration)/nM 3.193, single repeats
[7] = P. falciparum 3D7, Log(Concentration)/nM 3.496, single repeats
[8] = P. falciparum 3D7, Log(Concentration)/nM 3.796, single repeats
[9] = P. falciparum 3D7, Log(Concentration)/nM 4.097, single repeats
[10] = P. falciparum 3D7, Log(Concentration)/nM 4.398, single repeats
[11] = P. falciparum 3D7, Log(Concentration)/nM 4.699, single repeats
[12] = P. falciparum 3D7, Log(Concentration)/nM 5.000, single repeats

Question: `COc1cc(N2CCC(N3CCN(C)CC3)CC2)ccc1Nc1ncnc(Nc2ccccc2C2C=CCCC2)n1` (stereo not drawn) [Compound 31] was tested. Which “ΔTm of PfLysRS” value [1] did it give?
Answer: Its value is 2.0 °C.

Question: How did the “ΔTm of PfLysRS” value [1] turn out when `COc1cc(N2CCC(N3CCN(C)CC3)CC2)ccc1Nc1ncnc(Nc2ccccc2C2CCCCC2)n1` [Compound 32] was run?
Answer: The value was 4.1 °C.

Question: How did the “ΔTm of PfLysRS” value [1] turn out when `COc1ccc(C(F)(F)F)cc1Nc1ncnc(Nc2ccccc2S(=O)(=O)C(C)C)n1` [Compound 33] was run?
Answer: The value was -0.1 °C.

Question: With `COC(=O)c1ccc(OC)c(Nc2ncnc(Nc3ccccc3S(=O)(=O)C(C)C)n2)c1` [Compound 34] as the compound, how does the “% Inhibition” value ([2]; P. falciparum 3D7, Log(Concentration)/nM 2.290, single repeats) read?
Answer: Its value is 1.182% and -0.03693% and -1.145%.

Question: What about the “% Inhibition” value ([2]; P. falciparum 3D7, Log(Concentration)/nM 2.592, single repeats) of the same compound?
Answer: The value was 1.736% and -0.03693% and 4.616%.

Question: And the “% Inhibition” value [2, 6]?
Answer: The value was 62.22% and 58.01% and 53.91%.

Question: And the “% Inhibition” value [2, 7]?
Answer: Its value is 92.69% and 87.92% and 85.93%.

Question: What about the “% Inhibition” value [2, 8] of the same compound?
Answer: The value was 98.34% and 94.68% and 94.24%.

Question: And the “% Inhibition” value [2, 9]?
Answer: Its value is 98.78% and 97.23% and 96.34%.

Question: What about the “% Inhibition” value [2, 10] of the same compound?
Answer: The value was 101.2% and 100.6% and 98.23%.

Question: And the “% Inhibition” value [2, 11]?
Answer: Its value is 99.67% and 99.22% and 96.9%.

Question: What about the “% Inhibition” value [2, 12] of the same compound?
Answer: Its value is 94.68% and 96.01% and 94.24%.

Question: What about the “HillSlope (best-fit value)” value [2] of the same compound?
Answer: The value was 2.802.

Question: And the “LogIC50 (best-fit value)” value [2]?
Answer: Its value is 3.133.

Question: And the IC50 [2]?
Answer: The IC50 was 1.36 µM.

Question: What about the EC50 [2] of the same compound?
Answer: The EC50 was 1.36 ± 0.04 µM.

Question: And the ΔTm at 200 µM [1]?
Answer: The ΔTm at 200 µM was 7.9 °C.

Question: How did the “ΔTm of PfLysRS” value [1] turn out when `COc1ccc(Nc2ncnc(Nc3ccccc3S(=O)(=O)C(C)C)n2)c(OC)c1` [Compound 35] was run?
Answer: Its value is 6.4 °C.

Question: Which IC50 [3] does the source give for `COc1ccc(OC)c(Nc2ncnc(Nc3ccccc3S(=O)(=O)CCNC(=O)[C@@H](N)CCCCN)n2)c1` [Compound 36K2] here?
Answer: The IC50 was 0.365 µM.

Question: What about the IC50 [4] of the same compound?
Answer: The IC50 was 31 µM.

Question: What about the IC50 [5] of the same compound?
Answer: The IC50 was over 109 µM.

Question: And the “Tm of PfLysRS, Average” value ([1]; +Lysine, sheet Figure 6B)?
Answer: Its value is 50.650.

Question: And the “Tm of PfLysRS, single repeat” value ([1]; +Lysine, sheet Figure 6B)?
Answer: Its value is 50.665 and 50.973 and 50.296.

Question: How did the IC50 [3] turn out when `COc1ccc(OC)c(Nc2ncnc(Nc3ccccc3S(=O)(=O)CCCCCNC(=O)[C@@H](N)CCCCN)n2)c1` [Compound 36K5] was run?
Answer: The IC50 was 2.77 µM.

Question: What about the IC50 [4] of the same compound?
Answer: Its IC50 is 22 µM.

Question: And the IC50 [5]?
Answer: Its IC50 is over 66.8 µM.

Question: And the “△Tm of PfLysRS” value ([1]; +Lysine, sheet Figure 6B)?
Answer: Its value is 10.740.

Question: And the “Tm of PfLysRS, Average” value ([1]; +Lysine, sheet Figure 6B)?
Answer: The value was 55.760.

Question: What about the “Tm of PfLysRS, single repeat” value ([1]; +Lysine, sheet Figure 6B) of the same compound?
Answer: The value was 55.867 and 55.929 and 55.806 and 55.437.

Question: How did the “% Inhibition” value ([2]; P. falciparum 3D7, Log(Concentration)/nM 2.893, single repeats) turn out when `COc1cnc(OC)c(Nc2ncnc(Nc3ccccc3S(=O)(=O)C(C)C)n2)c1` [Compound 36a] was run?
Answer: Its value is 14.91%.

Question: And the “% Inhibition” value [2, 6]?
Answer: The value was 32.52% and 24.14%.

Question: And the “% Inhibition” value [2, 7]?
Answer: The value was 30.61% and 34.32%.

Question: What about the “% Inhibition” value [2, 8] of the same compound?
Answer: The value was 39.42% and 74.11%.

Question: What about the “% Inhibition” value [2, 9] of the same compound?
Answer: Its value is 57.98% and 94.48%.

Question: And the “% Inhibition” value [2, 10]?
Answer: The value was 81.01% and 104.5%.

Question: And the “% Inhibition” value [2, 11]?
Answer: Its value is 93% and 107%.

Question: What about the “% Inhibition” value [2, 12] of the same compound?
Answer: Its value is 88.65% and 105.6%.

Question: What about the “HillSlope (best-fit value)” value [2] of the same compound?
Answer: Its value is 1.181.

Question: And the “LogIC50 (best-fit value)” value [2]?
Answer: Its value is 3.762.

Question: And the IC50 [2]?
Answer: Its IC50 is 5.78 µM.

Question: What about the EC50 [2] of the same compound?
Answer: The EC50 was 5.78 ± 1.73 µM.

Question: And the IC50 [4]?
Answer: The IC50 was 44 µM.

Question: And the ΔTm at 200 µM [1]?
Answer: Its ΔTm at 200 µM is 10.7 °C.

Question: Which “ΔTm of PfLysRS” value [1] does the source give for `COc1ccc(OC)c(Nc2cccc(Nc3ccccc3S(=O)(=O)C(C)C)n2)c1` [Compound 36b] here?
Answer: Its value is 0.1 °C.

Question: With `COc1ccc(OC)c(Nc2cncc(Nc3ccccc3S(=O)(=O)C(C)C)n2)c1` [Compound 36c] as the compound, how does the “ΔTm of PfLysRS” value [1] read?
Answer: Its value is 0 °C.
